# Patent publication US11096952B2, “Chemicals and methods to prevent and treat TGF-beta mediated activation of fibroblasts to reduce and treat cancer and fibrosis” (Board of Supervisors of Louisiana State University and …, priority 2016, dated 2021)
# How the values were obtained:
# [1] = tested on: TGF-β-induced fibronectin expression; assay: Western blot of TGF-β-induced fibronectin expression in HPS-19 fibroblasts; assay type: cell-based, human; settings: HPS-19, 5 ng/ml TGF-β, digoxin 30, 60, 120, 240 nM, 24 hours
# Source text: (§1) Representative blots are shown with two exposures of fibronectin to account for strong signal intensity. n=3.
# [2] = tested on: TGF-β-induced fibronectin expression; assay: Western blot of TGF-β-induced fibronectin expression in MRC-5 fibroblasts (5 ng/ml TGF-β); assay type: cell-based, human; settings: MRC-5, 5 ng/ml TGF-β, digoxin 30, 60, 120, 240 nM, 24 hours
# Source text: as §1
# [3] = tested on: TGF-β-induced CAF differentiation markers; assay: Real-Time PCR of CAF markers in MRC-5 fibroblasts; assay type: cell-based, human; settings: MRC-5, 120 nM digoxin, 5 ng/ml TGF-β, 24 h
# Procedure: In order to determine if digoxin prevents CAF differentiation or simply TGF-β-induced fibronectin expression, the inventors performed quantitative reverse transcriptase-PCR (qPCR) to analyze other CAF markers, including α-SMA, collagen 1a1 (COL1A1), fibroblast activation protein (FAP), and tenascin C (TNC). RNA was extracted from cells treated with 120 nM digoxin±TGF-β for 24 hours. […] Additionally, the inventors observed that α-SMA mRNA expression was already high in WPMY-1 cells and not increased by addition of TGF-β, but was reduced in response to digoxin treatment.
# SMAD promoter activity = assay: SMAD luciferase reporter in WPMY-1 cells; assay type: cell-based, human; settings: WPMY-1, digoxin 60 or 120 nM, 5 ng/ml TGF-β, 24 hours
# Procedure: (§2) A) WPMY-1 human fibroblast cells transfected with SMAD (left) or EGR1 (right) luciferase reporter were treated with or without 5 ng/ml TGF-β in the presence or absence of Digoxin (60 or 120 nM) for 24 hours. Relative luciferase activity is shown. *P<0.05, **P<0.01, ***P<0.001 are significant differences compared to values set to 1 (n=3, Values are ±SEM). B) J2 mouse fibroblast cells were treated with or without 5 ng/ml TGF-β in the presence or absence of increasing concentrations (30, 60, 120, or 240 nM) of digoxin for 24 hours. Representative blot is shown with two exposures of fibronectin to account for strong signal intensity (n=3).
# (§3) Finally, J2 mouse fibroblast cells were treated with or without 5 ng/ml TGF-β in the presence or absence of increasing concentrations (30, 60, 120, or 240 nM) of digoxin for 24 hours.
# [4] = tested on: TGF-β-induced fibronectin expression; assay: Western blot of TGF-β-induced fibronectin in J2 mouse fibroblast cells; assay type: cell-based; settings: J2 (3T3-J2) mouse fibroblasts, digoxin 30-240 nM, 5 ng/ml TGF-β, 24 hours
# Procedure: as §2, §3
# The inventors used 3T3-J2 murine fibroblasts, which are highly resistant to cardiac glycosides compared to theft human counterpart.
smiles,measurement,setting,value
C[C@H]1O[C@@H](O[C@H]2[C@@H](O)C[C@H](O[C@H]3[C@@H](O)C[C@H](O[C@H]4CC[C@@]5(C)[C@H](CC[C@@H]6[C@@H]5C[C@@H](O)[C@]5(C)[C@@H](C7=CC(=O)OC7)CC[C@]65O)C4)O[C@@H]3C)O[C@@H]2C)C[C@H](O)[C@@H]1O [digoxin],TGF-β-induced fibronectin expression (western blot),[1],prevents TGF-β-induced fibronectin expression in a dose dependent manner
same,TGF-β-induced fibronectin expression (western blot),[2],prevents TGF-β-induced fibronectin expression in a dose dependent manner
same,"TGF-β-induced expression of FN1, α-SMA, COL1A1, TNC mRNA",[3],prevented TGF-β-induced expression
same,TGF-β-induced SMAD promoter (luciferase) activity,SMAD promoter activity,prevents the TGF-β induction of the SMAD signaling pathway
same,TGF-β-induced fibronectin expression in mouse fibroblasts,[4],did not have an effect on TGF-β-induced fibronectin expression
same,TGF-β-induced fibronectin expression in mouse fibroblasts,[4]; listed as Digoxin,did not prevent fibronectin induction even at high concentrations
